Assays:
Format in all cases: in vivo
[1] = tested on: Anguina pacificae nematode galls; assay: Nematode gall count of a treated Poa annua green, Pebble Beach
Excerpt: FIG. 5 sets forth comparative numerical representations of Anguina pacificae nematodes galls found in 100 cc untreated soil, 100 cc soil treated with azadirachtin, and 100 cc soil treated with fluopyram at defined concentrations and doses. In the legend provided, each letter (e.g., “A,” “B,” “C,” etc.) represents a two week interval (e.g., AC=4-week interval).
Example 2 describes effects of various treatments on nematode population on a Poa annua green at Pebble Beach.
(§1) Trials are kept free of any pests that can interfere or impact and nematode evaluations and yields.
(§2) A Poa annua green is treated by spraying the active ingredient on foliage and waiting at least three hours before irrigating into the thatch/mat layer for upward movement into the stem region (just above the crown) where the nematode resides. One or more applications can be made in 2-8 weeks. The interval may be longer if control has not declined, or treatments are to be applied in different seasons (e.g., spring and fall).
In FIG. 5, a Poa annua green is evaluated and counts of nematode galls per 100 cc soil are taken 87 and 139 days after anthesis (DAA). The first and fifth columns represent nematode gall count at 87 and 139 DAA, respectively, in an untreated sample of turfgrass. The second and sixth columns represent nematode gall count at 87 and 139 DAA, respectively, in turfgrass treated with 250 g ai/ha fluopyram at 4-week intervals. The third and seventh columns represent nematode gall count at 87 and 139 DAA, respectively, in turfgrass treated with 500 g ai/ha fluopyram at 4-week intervals. The fourth and eighth columns represent nematode gall count at 87 and 139 DAA, respectively, in turfgrass treated with 286 g ai/ha azadirachtin applied bi-weekly to the soil. FIG. 5 corresponds to Table 5 (87 DAA) and Table 6 (139 DAA), below.

[2] = tested on: Poa annua turfgrass; assay: Turf quality evaluation of a treated Poa annua green, Pebble Beach; conditions: 96 DAA, 1-9 scale (9 = best, 6 = acceptable), untreated 4.8
Protocol: FIG. 2 sets forth comparative turf quality evaluations of Poa annua turfgrass treated with fluopyram at defined concentrations and doses. In the legend provided, each letter (e.g., “A,” “B,” “C,” etc.) represents a two week interval (e.g., AC=4-week interval).
as §2
(§3) In FIG. 2, turf quality of a Poa annua green is evaluated 96 DAA. The first column represents turf quality at 96 DAA in an untreated sample of turfgrass. The second column represents turf quality at 96 DAA in turfgrass treated with 250 g ai/ha fluopyram at 4-week intervals. The third column represents turf quality at 96 DAA in turfgrass treated with 500 g ai/ha fluopyram at 4-week intervals. The fourth column represents turf quality at 96 DAA in turfgrass treated with 286 g ai/ha azadirachtin applied bi-weekly to the soil. FIG. 2 corresponds to Table 2, below.

[3] = tested on: Poa annua turfgrass; assay: Crop Circle ACS-430 canopy sensor vegetation index (RVI, NDVI) of a treated Poa annua green, Pebble Beach; conditions: for NDVI (Normalized Difference Vegetation Index) / RVI (Ratio Vegetation Index): Pebble Beach, 96 DAA; for NDVI (Normalized Difference Vegetation Index): untreated 0.7064; for RVI (Ratio Vegetation Index): untreated 5.830
Excerpt: FIG. 3 sets forth comparative RVI measurements of Poa annua turfgrass treated with fluopyram at defined concentrations and doses. In the legend provided, each letter (e.g., “A,” “B,” “C,” etc.) represents a two week interval (e.g., AC=4-week interval).
FIG. 4 sets forth comparative NDVI measurements of Poa annua turfgrass treated with fluopyram at defined concentrations and doses. In the legend provided, each letter (e.g., “A,” “B,” “C,” etc.) represents a two week interval (e.g., AC=4-week interval).
as §2
A Crop Circle ACS-430 active crop canopy sensor (Holland Scientific, Inc.) provided classic vegetation index data (RVI=Ratio Vegetation Indices; NDVI=Normalized difference vegetative index) from the turf canopy. Unlike passive radiometric light sensors, the Crop Circle ACS-430 is not limited by ambient lighting conditions and measurements were made by day due to its unique light source technology. Information produced by the sensor can be utilized to quantify the impact of nutrients, water, disease or other growing conditions on the turf plant. The ratio vegetation index (RVI) is formed by dividing the near infra-red irradiance by the red irradiance. Study plots were scanned at intervals to collect this quantitative data. The normalized difference vegetative index (NDVI) is calculated as follows: […]
where VIS and NIR stand for the spectral reflectance measurements acquired in the visible (red) and near-infrared regions, respectively.
as §3, with “FIG. 3, RVI” for “FIG. 2, turf quality”, “represents RVI” for “represents turf quality”, “FIG. 3” for “FIG. 2”, “Table 3,” for “Table 2,”
as §3, with “FIG. 4, NDVI” for “FIG. 2, turf quality”, “represents NDVI” for “represents turf quality”, “FIG. 4” for “FIG. 2”, “Table 4,” for “Table 2,”

[4] = tested on: Anguina pacificae nematodes; assay: Nematode count in soil of a treated Poa annua green, Pebble Beach; conditions: 87 DAA, untreated 212.5
Excerpt: FIG. 1 sets forth comparative numerical representations of Anguina pacificae nematodes found in 100 cc untreated soil, 100 cc soil treated with azadirachtin, and 100 cc soil treated with fluopyram at defined concentrations and doses. In the legend provided, each letter (e.g., “A,” “B,” “C,” etc.) represents a two week interval (e.g., AC=4-week interval).
Example 1 describes effects of various treatments on nematode population on a Poa annua green at Pebble Beach.
as §1, §2
In FIG. 1, a Poa annua green is evaluated and counts of nematodes per 100 cc soil are taken 87 days after anthesis (DAA). The first column represents nematode count at 87 DAA in an untreated sample of turfgrass. The second column represents nematode count at 87 DAA in turfgrass treated with 250 g ai/ha fluopyram at 4-week intervals. The third column represents nematode count at 87 DAA in turfgrass treated with 500 g ai/ha fluopyram at 4-week intervals. The fourth column represents nematode count at 87 DAA in turfgrass treated with 286 g ai/ha azadirachtin applied bi-weekly to the soil. FIG. 1 corresponds to Table 1, below.

[5] = tested on: Anguina pacificae nematode galls; assay: Nematode gall count of a treated Poa annua green, The Links at Spanish Bay; conditions: 171 DAA, untreated 22.8
Excerpt: FIG. 6 sets forth comparative numerical representations of Anguina pacificae nematode galls found in 100 cc untreated soil, 100 cc soil treated with azadirachtin+cimectacarb, and 100 cc soil treated with fluopyram at defined concentrations and doses. In the legend provided, each letter (e.g., “A,” “B,” “C,” etc.) represents a two week interval (e.g., AC=4-week interval).
Example 3 describes effects of various treatments on nematode population on a Poa annua green at The Links at Spanish Bay.
as §1, §2
In FIG. 6, a Poa annua green is evaluated and counts of nematode galls per 100 cc soil are taken 171 days after anthesis (DAA). The first column represents nematode count at 171 DAA in an untreated sample of turfgrass. The second column represents nematode count at 171 DAA in turfgrass treated with 250 g ai/ha fluopyram at 4-week intervals. […]

[6] = tested on: Poa annua turfgrass; assay: Turf quality evaluation of a treated Poa annua green, The Links at Spanish Bay; conditions: 179 DAA, 0-10 scale (10 = best), untreated 5.5
Protocol: FIG. 7 sets forth comparative turf quality evaluations of Poa annua turfgrass treated with fluopyram at defined concentrations and doses. In the legend provided, each letter (e.g., “A,” “B,” “C,” etc.) represents a two week interval (e.g., AC=4-week interval).
as §2
as §3, with “FIG. 7,” for “FIG. 2,”, “evaluated 179” for “evaluated 96”, “at 179” for “at 96”, “FIG. 7” for “FIG. 2”, “Table 8,” for “Table 2,”

[7] = 250 g ai/ha at 4-week intervals
[8] = 500 g ai/ha at 4-week intervals
[9] = 286 g ai/ha applied bi-weekly to the soil

SMILES: O=C(NCCc1ncc(C(F)(F)F)cc1Cl)c1ccccc1C(F)(F)F [fluopyram, N-{2-[3-chloro-5-(trifluoromethyl)-2-pyridinyl]ethyl}-2-(trifluoromethyl) benzamide]
- Nematode galls/100 cc soil ([1]; 250 g ai/ha at 4-week intervals, 87 DAA, untreated 31): 6 galls/100 cc soil
- Nematode galls/100 cc soil ([1]; 250 g ai/ha at 4-week intervals, 139 DAA, untreated 19): 2 galls/100 cc soil
- Nematode galls/100 cc soil ([1]; 500 g ai/ha at 4-week intervals, 87 DAA, untreated 31): 3 galls/100 cc soil
- Nematode galls/100 cc soil ([1]; 500 g ai/ha at 4-week intervals, 139 DAA, untreated 19): 0.5 galls/100 cc soil
- Turf Quality [2, 7]: 7.4
- Turf Quality [2, 8]: 8.1
- NDVI (Normalized Difference Vegetation Index) [3, 7]: 0.7634
- RVI (Ratio Vegetation Index) [3, 7]: 7.475
- NDVI (Normalized Difference Vegetation Index) [3, 8]: 0.7908
- RVI (Ratio Vegetation Index) [3, 8]: 8.598
- Vegetative index (RVI and NDVI) compared to the untreated control ([3]; averaged over the course of the study, Poa annua turfgrass): positively enhanced vegetative index
- Nematodes/100 cc soil [4, 7]: 17.5 nematodes/100 cc soil
- Nematodes/100 cc soil [4, 8]: 17.5 nematodes/100 cc soil
- Nematode galls/100 cc soil [5, 7]: 4.3 galls/100 cc soil
- Nematode galls/100 cc soil [5, 8]: 1.8 galls/100 cc soil
- Turf Quality [6, 7]: 6.0
- Turf Quality [6, 8]: 8.5

SMILES: C/C=C(\C)C(=O)O[C@H]1C[C@@H](OC(C)=O)[C@@]2(C(=O)OC)CO[C@H]3[C@@H](O)[C@@](C)([C@]45O[C@@]4(C)[C@H]4C[C@@H]5O[C@@H]5OC=C[C@@]54O)[C@H]4[C@]1(CO[C@]4(O)C(=O)OC)[C@@H]32 [azadirachtin]
- Nematode galls/100 cc soil ([1]; 286 g ai/ha applied bi-weekly to the soil, 87 DAA, untreated 31): 34 galls/100 cc soil
- Nematode galls/100 cc soil ([1]; 286 g ai/ha applied bi-weekly to the soil, 139 DAA, untreated 19): 16 galls/100 cc soil
- Turf Quality [2, 9]: 4.8
- NDVI (Normalized Difference Vegetation Index) [3, 9]: 0.6865
- RVI (Ratio Vegetation Index) [3, 9]: 5.425
- Nematodes/100 cc soil [4, 9]: 270 nematodes/100 cc soil

From patent publication US20180042232A1, “Methods and Compositions for Reducing Anguina Nematode Infestation and Improving Grass Quality” (Bayer CropScience LP, priority 2015, published 2018)
